Data on 22 compounds can be found in the supplement of paper PMC4862054.

Where “and” joins values, the source holds several entries; their conditions need not be identical. Equal values may be shown once.

Holding throughout (test): normalised viability (% of control), CellTiter-Blue; higher = more viable cells (about 100 = DMSO control)
Common to all, as to conditions: incubation time: 72 h
For orientation: The colour change of resazurin is a common sign of viable cells or microbes.

Test [1] deals with CAL-85-1. How it is done: (§1)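 DSRT, CellTiter-Blue viability, 72 h incubation. Signal is normalised to DMSO and benzethonium chloride controls. Value is the normalised response at dose 8.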
The subject of test [2] is CAL-51. How it is done: as §1
For test [3], the system named is MDA-MB-453. How it is done:
as §1

Test [4] deals with DU-4475. How it is done: as §1
For test [5], the system named is HDQ-P1. How it is done:
as §1

The test system of test [6] is CAL-148. How it is done: as §1
Test [7] concerns CAL-85-1. How it is done:
(§2)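 DSRT, CellTiter-Blue viability, 72 h incubation. Signal is normalised to DMSO and benzethonium chloride controls. Value is the normalised response at dose 7.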
This is another data set of the same source.

The test system of test [8] is CAL-51. How it is done: as §2
The source holds these as a separate data set.

Test [9] relates to MDA-MB-453. As to the method: as §2
The source holds these as a separate data set.

Test [10] relates to DU-4475. As to the method: as §2
The source holds these as a separate data set.

Test [11] concerns HDQ-P1. As to the method:
as §2
The source holds these as a separate data set.

Test [12] deals with CAL-148. As to the method: as §2
The source holds these as a separate data set.

Test [13] deals with CAL-85-1. As to the method:
(§3)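 DSRT, CellTiter-Blue viability, 72 h incubation. Signal is normalised to DMSO and benzethonium chloride controls. Value is the normalised response at dose 6.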
The source holds these as a separate data set.

Test [14] deals with CAL-51. As to the method:
as §3
The source holds these as a separate data set.

For test [15], the system named is MDA-MB-453. As to the method:
as §3
The source holds these as a separate data set.

In test [16] the test system is DU-4475. As to the method: as §3
This is another data set of the same source.

In test [17] the test system is HDQ-P1. How it is done:
as §3
This is another data set of the same source.

Test [18] concerns CAL-148. How it is done:
as §3
This is another data set of the same source.

As to `COCC[n+]1c2c(n(Cc3cnccn3)c1C)C(=O)c1ccccc1C2=O` [YM155] (3000 nM), the normalised viability is 2.51% in [1]; 1.46% in test [2]; 2.38% in [3]; 0.2% in test [4]; 0.93% in test [5]; 2.73% in test [6].
As to `S=P(N1CC1)(N1CC1)N1CC1` [Thio-TEPA] (30000 nM), the normalised viability in [1] is 97.8%; in test [2], 102%; in test [3], 97%; in test [4], 103%; in test [5], 108%; in test [6], 127%.
For `O=C(Nc1cccnc1)N1CCC(Cc2cccc(Oc3ccc(C(F)(F)F)cn3)c2)CC1` [PF-3845] (3000 nM), the normalised viability in test [1] was 93.9%; in [2], 93.2%; in test [3], 62.1%; in test [4] it was 93.9%; in test [5], 122%; in test [6], 97.9%.
On to `O=P1(N(CCCl)CCCl)NCCCO1` (stereo unspecified) [Cyclophosphamide] (12000 nM), for which the normalised viability turned out to be 93.7% in [1]; 105% in test [2]; 109% in test [3]; 104% in [4]; 110% in test [5]; 97.2% in test [6].
In the case of `CN(C)CCOc1ccc(/C(=C(/CCCl)c2ccccc2)c2ccccc2)cc1` [Toremifene] (3000 nM), the normalised viability in test [1] was determined as 109%; in test [2], 95.8%; in test [3] it was 99.7%; in [4], 101%; in test [5], 113%; in test [6], 104%.
For the compound `c1ccc2c(CCNc3ccc(Nc4ccncc4)cc3)c[nH]c2c1` [Serdemetan] (3000 nM), the normalised viability in test [1] is 67.1%; in test [2] it was 88.5%; in test [3], 66.8%; in test [4], 79.5%; in test [5], 89%; in [6], 67%.
In the case of `Cc1ccc(NC(=O)c2ccc(CN3CCN(C)CC3)cc2)cc1Nc1nc(-c2cccnc2)cs1` [Masitinib] (3000 nM), the normalised viability in test [1] amounted to 94%; in test [2], 115%; in [3], 65.5%; in test [4], 125%; in test [5], 103%; in test [6] it was 74.8%.
For the compound `COC(=O)c1ccc2c(c1)NC(=O)/C2=C(\Nc1ccc(N(C)C(=O)CN2CCN(C)CC2)cc1)c1ccccc1` [BIBF 1120] (1000 nM), the normalised viability in [7] came out at 111%; in [8], 68.2%; in test [9], 78.2%; in test [10], 96.8%; in test [11], 119%; in [12] it was 99%.
Take `Cc1cc(Nc2cc(CN3CCOCC3)c3nc(C)c(Cc4ccc(Cl)cc4F)n3n2)n[nH]1` (1000 nM): the normalised viability in test [7] came to 86.5%; in [8] it was 85.8%; in [9], 53.3%; in test [10], 94%; in test [11] it was 72.5%; in test [12] it was 94.6%.
In the case of `S=P(N1CC1)(N1CC1)N1CC1` [Thio-TEPA] (10000 nM), the normalised viability in test [7] came to 91.3%; in [8] it was 89.6%; in test [9], 121%; in test [10], 96.6%; in [11], 113%; in test [12], 113%.
Regarding `CN(C)CCOc1ccc(/C(=C(/CCCl)c2ccccc2)c2ccccc2)cc1` [Toremifene] (300 nM), the normalised viability in test [13] came to 101%; in [14] it was 104%; in [15] it was 101%; in test [16], 99.7%; in test [17], 79.5%; in [18] it was 102%.
Consider `O=C(/C=C/c1cccc(S(=O)(=O)Nc2ccccc2)c1)NO` [Belinostat] (300 nM), for which the normalised viability in test [13] was 72.5%; in test [14] it was 105%; in test [15], 16.9%; in [16], 59.2%; in test [17], 26.6%; in test [18] it was 49.3%.
`CN(C)c1nc(N(C)C)nc(N(C)C)n1` [Altretamine] (300 nM): the normalised viability worked out at 95.9% in test [13]; 108% in [14]; 112% in test [15]; 110% in test [16]; 88.5% in [17]; 112% in [18].
In the case of `CC(C)C[C@@H](C(=O)N[C@H](C(=O)OC1CCCC1)c1ccccc1)[C@H](O)C(=O)NO` [Tosedostat] (300 nM), the normalised viability in [13] came out at 92.8%; in [14], 86.5%; in test [15], 51.8%; in test [16], 51.1%; in test [17] it was 81.5%; in test [18], 78.1%.
As to `Nc1cc(C(F)(F)F)c(-c2cc(N3CCOCC3)nc(N3CCOCC3)n2)cn1` [BKM-120] (300 nM), the normalised viability was found to be 81.2% in test [13]; 78.4% in [14]; 71.2% in [15]; 102% in [16]; 71.9% in test [17]; 92.5% in [18].
As to `CNC(=O)c1cc(Oc2ccc(NC(=O)Nc3ccc(Cl)c(C(F)(F)F)c3)c(F)c2)ccn1` [Regorafenib] (300 nM), the normalised viability is 85.3% in [13]; 100% in [14]; 95.6% in test [15]; 103% in test [16]; 89.8% in test [17]; 93.6% in test [18].
As to `Nc1cc(C(F)(F)F)c(-c2cc(N3CCOCC3)nc(N3CCOCC3)n2)cn1` [BKM-120] (1000 nM), the normalised viability stood at 58.3% in [7]; 56.9% in test [8]; 32.4% in test [9]; 92.9% in test [10]; 63.2% in test [11]; 83.7% in [12].
As for `O=C(Nc1cccnc1)N1CCC(Cc2cccc(Oc3ccc(C(F)(F)F)cn3)c2)CC1` [PF-3845] (300 nM), the normalised viability turned out to be 93% in test [13]; 97.9% in test [14]; 98.4% in [15]; 95.4% in [16]; 127% in test [17]; 103% in test [18].
With `COc1cc2/c(=N/c3ccc(Br)cc3F)nc[nH]c2cc1OCC1CCN(C)CC1` [Vandetanib] (300 nM), the normalised viability was found to be 83.7% in test [13]; 89.6% in test [14]; 97.5% in test [15]; 101% in test [16]; 31.4% in test [17]; 90.7% in test [18].
As to `COC(=O)c1ccc2c(c1)NC(=O)/C2=C(\Nc1ccc(N(C)C(=O)CN2CCN(C)CC2)cc1)c1ccccc1` [BIBF 1120] (300 nM), the normalised viability in [13] came out at 111%; in test [14] it was 93.9%; in test [15], 105%; in [16], 91.9%; in [17], 100%; in test [18], 96.1%.
On to `c1ccc2c(CCNc3ccc(Nc4ccncc4)cc3)c[nH]c2c1` [Serdemetan] (300 nM), for which the normalised viability in test [13] is 87.7%; in test [14], 108%; in test [15], 109%; in test [16], 87.6%; in [17], 57.9%; in test [18] it was 87.6%.
As to `CCc1c2c(nc3ccc(OC(=O)N4CCC(N5CCCCC5)CC4)cc13)-c1cc3c(c(=O)n1C2)COC(=O)[C@]3(O)CC` [Irinotecan] (3000 nM), the normalised viability was 63.7% and 73.4% in [1]; 49.9% and 64.2% in test [2]; 73.3% and 90.7% in test [3]; 44.3% and 57.5% in test [4]; 28% and 42% in [6].
